Consider 32 compounds from patent US10472381B2, “Sialic acid derivatives” (Reinhard Brossmer, priority 2014, dated 2019).

The target of the first experiment is T1, CD22 (Homo sapiens, UniProt P20273).
T1 construct: The soluble CD22 protein was expressed in the CHO-Lec1 cell line; made in house; host or cells: CHO-Lec1
T1 sequence (P20273 20-687 limits assumed): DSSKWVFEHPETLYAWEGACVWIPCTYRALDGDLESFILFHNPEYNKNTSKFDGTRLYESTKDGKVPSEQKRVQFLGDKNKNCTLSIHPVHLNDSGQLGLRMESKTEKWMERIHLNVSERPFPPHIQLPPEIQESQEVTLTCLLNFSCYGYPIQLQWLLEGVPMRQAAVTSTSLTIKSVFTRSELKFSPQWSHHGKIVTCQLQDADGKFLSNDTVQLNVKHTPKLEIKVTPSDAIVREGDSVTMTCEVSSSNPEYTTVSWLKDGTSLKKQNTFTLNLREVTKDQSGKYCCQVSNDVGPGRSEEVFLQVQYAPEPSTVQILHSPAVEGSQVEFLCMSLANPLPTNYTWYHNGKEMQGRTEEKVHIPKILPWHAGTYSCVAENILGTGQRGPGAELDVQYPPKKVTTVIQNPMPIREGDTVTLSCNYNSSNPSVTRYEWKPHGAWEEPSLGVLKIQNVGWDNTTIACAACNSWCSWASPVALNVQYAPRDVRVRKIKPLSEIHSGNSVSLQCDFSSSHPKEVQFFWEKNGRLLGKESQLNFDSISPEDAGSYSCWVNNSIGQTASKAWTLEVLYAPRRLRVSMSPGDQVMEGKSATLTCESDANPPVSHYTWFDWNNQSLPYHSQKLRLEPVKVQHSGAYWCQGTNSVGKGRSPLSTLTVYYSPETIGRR
The experiment can be described thus: ELISA-based inhibition assay: inhibition of binding of soluble CD22 to immobilized IgM. The note with it: Table I; relative to reference BPCNeu5Ac (rIP = 1). As for the experimental part: The biological activity of the substances was determined in an ELISA-based inhibition assay as described in “Eur. J. Immunol. 2012, 42, 2792-2802”. The sialic acid derivatives of the formula (I) inhibit the binding of soluble CD22 to immobilized IgM in proportion to their affinity for CD22. The soluble CD22 protein was expressed in the CHO-Lec1 cell line and isolated as described by “Eur. J. Immunol. 2012, 42, 2792-2802”. […] The increase in affinity is reported as rIP (relative inhibitory affinity).
In the case of `CO[C@]1(C(=O)[O-])C[C@H](O)[C@@H](NC(C)=O)[C@H]([C@H](O)[C@H](O)CNC(=O)c2ccc(-c3ccccc3)cc2)O1.[Na+]` [BPC Neu5 Ac, reference compound], the “rIP (relative inhibitory potency)” value is listed as 1.
The same measure, in the same setting: under `CC(=O)N[C@H]1[C@H]([C@H](O)[C@H](O)CNC(=O)c2ccc(-c3ccccc3)cc2)O[C@@](OCCCCCC(=O)[O-])(C(=O)[O-])C[C@@H]1NS(=O)(=O)[O-].[Na+].[Na+].[Na+]` [Compound 15] stands 1920.
On to `CCC(=O)N[C@H]1C[C@](OCCCCCC(=O)[O-])(C(=O)[O-])O[C@@H]([C@H](O)[C@H](O)CNC(=O)c2ccc(-c3ccccc3)cc2)[C@@H]1NC(C)=O.[Na+].[Na+]` [Compound 17], for which the “rIP (relative inhibitory potency)” value stood at 502.
Same read-out and setting: under `CC(=O)N[C@H]1[C@H]([C@H](O)[C@H](O)CNC(=O)c2ccc(-c3ccccc3)cc2)O[C@@](OCCCSCCC(=O)[O-])(C(=O)[O-])C[C@@H]1OS(=O)(=O)[O-].[Na+].[Na+].[Na+]` [Compound 20] stands 3130; under `CC(=O)N[C@H]1[C@H]([C@H](O)[C@H](O)CNC(=O)c2ccc(-c3ccc(F)cc3)cc2)O[C@@](OCCCCCC(=O)[O-])(C(=O)[O-])C[C@@H]1NS(=O)(=O)[O-].[Na+].[Na+].[Na+]` [Compound 37], 405.

Still in this experiment, the particulars now being: Table I; soluble CD22 binding to immobilized IgM.
As a reminder, the IC50 is the concentration that inhibits the measured activity by half. `CO[C@]1(C(=O)[O-])C[C@H](O)[C@@H](NC(C)=O)[C@H]([C@H](O)[C@H](O)CNC(=O)c2ccc(-c3ccccc3)cc2)O1.[Na+]` [BPC Neu5 Ac, reference compound] showed an IC50 of 6100 nM.
The same measure, in the same setting: under `CCC(=O)N[C@@H]1[C@@H](NC(C)=O)[C@H]([C@H](O)[C@H](O)CNC(=O)c2ccc(-c3ccccc3)cc2)O[C@@](OCCCCCC(=O)O)(C(=O)O)[C@H]1O` [Compound 10] stands 6 nM; under `CC(=O)N[C@@H]1[C@@H](NS(C)(=O)=O)[C@H](O)[C@](OCCCCCC(=O)O)(C(=O)O)O[C@H]1[C@H](O)[C@H](O)CNC(=O)c1ccc(-c2ccccc2)cc1` [Compound 11], 7.7 nM.
Still for that read-out and setting: under `CC(=O)N[C@H]1[C@H]([C@H](O)[C@H](O)CNC(=O)c2ccc(-c3ccccc3)cc2)O[C@@](OCCCCCC(=O)[O-])(C(=O)[O-])C[C@@H]1NS(=O)(=O)[O-].[Na+].[Na+].[Na+]` [Compound 15] stands 3.2 nM.
The same measure, in the same setting: under `CCC(=O)N[C@H]1C[C@](OCCCCCC(=O)[O-])(C(=O)[O-])O[C@@H]([C@H](O)[C@H](O)CNC(=O)c2ccc(-c3ccccc3)cc2)[C@@H]1NC(C)=O.[Na+].[Na+]` [Compound 17] stands 12 nM; under `CC(=O)N[C@H]1[C@H]([C@H](O)[C@H](O)CNC(=O)c2ccc(-c3ccccc3)cc2)O[C@@](OCCCSCCC(=O)[O-])(C(=O)[O-])C[C@@H]1OS(=O)(=O)[O-].[Na+].[Na+].[Na+]` [Compound 20], 2 nM; under `CC(=O)N[C@H]1[C@H]([C@H](O)[C@H](O)CNC(=O)c2ccc(-c3ccccc3)cc2)O[C@@](OCCCSCCC(=O)O)(C(=O)O)C[C@@H]1NC(=O)OC(C)(C)C` [Compound 29], 85 nM.
As for `CC(=O)N[C@H]1[C@H]([C@H](O)[C@H](O)CNC(=O)c2ccc(-c3ccc(F)cc3)cc2)O[C@@](OCCCCCC(=O)[O-])(C(=O)[O-])C[C@@H]1NS(=O)(=O)[O-].[Na+].[Na+].[Na+]` [Compound 37], the IC50 amounted to 15 nM.

Still in this experiment, the particulars now being: Table II; relative to reference compound 10 co-tested in the same assay (rIP = 1).
`CC(=O)N[C@@H]1[C@@H](NC(C)=O)[C@H](O)[C@](OCCCCCC(=O)[O-])(C(=O)[O-])O[C@H]1[C@H](O)[C@H](O)CNC(=O)c1ccc(-c2ccccc2)cc1.[Na+].[Na+]` [Compound 38] returned a rIP of 0.45.
On the same count and under the same terms, under `CC(=O)N[C@@H]1[C@@H](NC(=O)C(C)C)[C@H](O)[C@](OCCCCCC(=O)[O-])(C(=O)[O-])O[C@H]1[C@H](O)[C@H](O)CNC(=O)c1ccc(-c2ccccc2)cc1.[Na+].[Na+]` [Compound 39] stands 0.70; under `CC(=O)N[C@@H]1[C@@H](NC(=O)C(C)(C)C)[C@H](O)[C@](OCCCCCC(=O)[O-])(C(=O)[O-])O[C@H]1[C@H](O)[C@H](O)CNC(=O)c1ccc(-c2ccccc2)cc1.[Na+].[Na+]` [Compound 40], 0.38.
The same measure, in the same setting: the result for `CC(=O)N[C@@H]1[C@@H](NC(=O)CCl)[C@H](O)[C@](OCCCCCC(=O)[O-])(C(=O)[O-])O[C@H]1[C@H](O)[C@H](O)CNC(=O)c1ccc(-c2ccccc2)cc1.[Na+].[Na+]` [Compound 41] reads 0.37; that for `CCCCC(=O)N[C@@H]1[C@@H](NC(C)=O)[C@H]([C@H](O)[C@H](O)CNC(=O)c2ccc(-c3ccccc3)cc2)O[C@@](OCCCCCC(=O)[O-])(C(=O)[O-])[C@H]1O.[Na+].[Na+]` [Compound 42], 1.22.
Same read-out and setting: under `CC(=O)N[C@@H]1[C@@H](NC(=O)CF)[C@H](O)[C@](OCCCCCC(=O)[O-])(C(=O)[O-])O[C@H]1[C@H](O)[C@H](O)CNC(=O)c1ccc(-c2ccccc2)cc1.[Na+].[Na+]` [Compound 43] stands 0.25; under `CC(=O)N[C@@H]1[C@@H](NC(=O)CO)[C@H](O)[C@](OCCCCCC(=O)[O-])(C(=O)[O-])O[C@H]1[C@H](O)[C@H](O)CNC(=O)c1ccc(-c2ccccc2)cc1.[Na+].[Na+]` [Compound 44], 0.24.
With `CC(=O)N[C@@H]1[C@@H](NC(=O)C2CC2)[C@H](O)[C@](OCCCCCC(=O)[O-])(C(=O)[O-])O[C@H]1[C@H](O)[C@H](O)CNC(=O)c1ccc(-c2ccccc2)cc1.[Na+].[Na+]` [Compound 45], the rIP worked out at 0.81.
`CC(=O)N[C@@H]1[C@@H](NC(=O)CCCl)[C@H](O)[C@](OCCCCCC(=O)[O-])(C(=O)[O-])O[C@H]1[C@H](O)[C@H](O)CNC(=O)c1ccc(-c2ccccc2)cc1.[Na+].[Na+]` [Compound 46] returned a rIP of 0.84.
`CC(=O)N[C@@H]1[C@@H](NC(=O)CN(C)C)[C@H](O)[C@](OCCCCCC(=O)[O-])(C(=O)[O-])O[C@H]1[C@H](O)[C@H](O)CNC(=O)c1ccc(-c2ccccc2)cc1.[Na+].[Na+]` [Compound 47] came in with a rIP of 0.18.
`CC(=O)N[C@@H]1[C@@H](NC(=O)c2ccccc2)[C@H](O)[C@](OCCCCCC(=O)[O-])(C(=O)[O-])O[C@H]1[C@H](O)[C@H](O)CNC(=O)c1ccc(-c2ccccc2)cc1.[Na+].[Na+]` [Compound 48]: the rIP was 0.93.
On the same count and under the same terms, the result for `COc1cccc(C(=O)N[C@@H]2[C@@H](NC(C)=O)[C@H]([C@H](O)[C@H](O)CNC(=O)c3ccc(-c4ccccc4)cc3)O[C@@](OCCCCCC(=O)[O-])(C(=O)[O-])[C@H]2O)c1.[Na+].[Na+]` [Compound 49] reads 0.34.
Same read-out and setting: under `CC(=O)N[C@@H]1[C@@H](NC(=O)c2cccc(C)c2)[C@H](O)[C@](OCCCCCC(=O)[O-])(C(=O)[O-])O[C@H]1[C@H](O)[C@H](O)CNC(=O)c1ccc(-c2ccccc2)cc1.[Na+].[Na+]` [Compound 50] stands 0.51.
On the same count and under the same terms, under `CC(=O)N[C@@H]1[C@@H](NC(=O)c2ccccc2C)[C@H](O)[C@](OCCCCCC(=O)[O-])(C(=O)[O-])O[C@H]1[C@H](O)[C@H](O)CNC(=O)c1ccc(-c2ccccc2)cc1.[Na+].[Na+]` [Compound 51] stands 0.13; under `CC(=O)N[C@@H]1[C@@H](NC(=O)c2ccccc2Cl)[C@H](O)[C@](OCCCCCC(=O)[O-])(C(=O)[O-])O[C@H]1[C@H](O)[C@H](O)CNC(=O)c1ccc(-c2ccccc2)cc1.[Na+].[Na+]` [Compound 52], 0.12.

The experiment is the same for the next values; noted with them: Table III; relative to reference compound 17 co-tested in the same assay (rIP = 1).
`CCC(=O)N[C@H]1C[C@](OCCCCCC(=O)[O-])(C(=O)[O-])O[C@@H]([C@H](O)[C@H](O)CNC(=O)c2ccc(-c3ccccc3)cc2)[C@@H]1NC(C)=O.[Na+].[Na+]` [Compound 17] displayed a rIP of 1.
In turn, `CC(=O)N[C@H]1[C@H]([C@H](O)[C@H](O)CNC(=O)c2ccc(-c3ccccc3)cc2)O[C@@](OCCCCCC(=O)[O-])(C(=O)[O-])C[C@@H]1NC(=O)c1ccccc1.[Na+].[Na+]` [Compound 53] registered a rIP of 1.1.
On the same count and under the same terms, under `CC(=O)N[C@H]1[C@H]([C@H](O)[C@H](O)CNC(=O)c2ccc(-c3ccccc3)cc2)O[C@@](OCCCCCC(=O)[O-])(C(=O)[O-])C[C@@H]1NC(=O)c1c(F)cccc1F.[Na+].[Na+]` [Compound 54] stands 0.75; under `CC(=O)N[C@H]1[C@H]([C@H](O)[C@H](O)CNC(=O)c2ccc(-c3ccccc3)cc2)O[C@@](OCCCCCC(=O)[O-])(C(=O)[O-])C[C@@H]1NC(=O)c1cnccn1.[Na+].[Na+]` [Compound 55], 2.7.
Still for that read-out and setting: under `CC(=O)N[C@H]1[C@H]([C@H](O)[C@H](O)CNC(=O)c2ccc(-c3ccccc3)cc2)O[C@@](OCCCCCC(=O)[O-])(C(=O)[O-])C[C@@H]1NC(=O)c1cccs1.[Na+].[Na+]` [Compound 56] stands 3.6; under `CC(=O)N[C@H]1[C@H]([C@H](O)[C@H](O)CNC(=O)c2ccc(-c3ccccc3)cc2)O[C@@](OCCCCCC(=O)[O-])(C(=O)[O-])C[C@@H]1NC(=O)c1ccco1.[Na+].[Na+]` [Compound 57], 6.1.
The same measure, in the same setting: under `CC(=O)N[C@H]1[C@H]([C@H](O)[C@H](O)CNC(=O)c2ccc(-c3ccccc3)cc2)O[C@@](OCCCCCC(=O)[O-])(C(=O)[O-])C[C@@H]1NC(=O)CC1NC(=O)NC1=O.[Na+].[Na+]` (some centres unmarked) [Compound 58] stands 3.4.
As to `CC(=O)N[C@H]1[C@H]([C@H](O)[C@H](O)CNC(=O)c2ccc(-c3ccccc3)cc2)O[C@@](OCCCCCC(=O)[O-])(C(=O)[O-])C[C@@H]1NC(=O)c1ccc(C)cc1.[Na+].[Na+]` [Compound 59], the rIP is recorded as 0.24.
Still for that read-out and setting: under `CC(=O)N[C@H]1[C@H]([C@H](O)[C@H](O)CNC(=O)c2ccc(-c3ccccc3)cc2)O[C@@](OCCCCCC(=O)[O-])(C(=O)[O-])C[C@@H]1NC(=O)c1ccc(F)cc1.[Na+].[Na+]` [Compound 60] stands 2.1.
Turning to `CC(=O)N[C@H]1[C@H]([C@H](O)[C@H](O)CNC(=O)c2ccc(-c3ccccc3)cc2)O[C@@](OCCCCCC(=O)[O-])(C(=O)[O-])C[C@@H]1NC(=O)c1ccc(Cl)cc1.[Na+].[Na+]` [Compound 61], the rIP worked out at 3.4.
